Patent publication US12419304B2, “Aryl sulfide comprising benzylamine, synthesis method and application thereof” (Shandong Kangqiao Bio-Technology Co., Ltd., priority 2019, dated 2025)
Where two headings read alike, the source gives them in different places.

System: Tetranychus cinnabarinus
Test: Activity test of Tetranychus cinnabarinus (spray on inoculated bean seedlings, mortality after 72 hours)
Format: in vivo
Details: for pest or weed control at 100 ppm: 100 ppm (100 mg/L); for pest or weed control at 100 ppm / pest or weed control at 6.25 ppm / pest or weed control at 25 ppm: whole plant sprayed, 72 hours, read-out: lethal rate against mites; for pest or weed control at 6.25 ppm: 6.25 ppm (6.25 mg/L); for pest or weed control at 25 ppm: 25 ppm (25 mg/L)
Protocol: Activity Test of Tetranychus cinnabarinus
The compound under test was dissolved in acetone and diluted to desired concentration with 0.1% Tween 80 solution with acetone content not exceeding 5%.
One true leaf was removed from the bean seedlings having two true leaves. Tanyanychus cinarinus was inoculated and the cardinal number thereof investigated. The whole plant was sprayed with a handheld sprayer, and each treatment was repeated for 3 times. After treatment, the bean seedlings were cultured in a constant temperature room. 72 hours later, the number of live mites was investigated and the mortality rate was calculated. The number of Tetranychus cinnabarinus was 100-200 per inoculation. Mortality=(number of inoculated mites−number of live mites after treatment)[…]×100%.

[1] = Concentration 3.12 ppm, acaricidal parallel test with bifenazate and cyflumetofen, read-out: Mortality %

Compound	mortality at 3.12 ppm [%]	pest or weed control at 100 ppm [%]	pest or weed control at 6.25 ppm [%]	pest or weed control at 25 ppm [%]	mortality at 3.12 ppm [1] [%]
COc1ccc(-c2ccccc2)cc1NNC(=O)OC(C)C [Bifenazate, bifenazate, reference compound]	85				
Cc1cc(F)c(NCc2ccccc2C#N)cc1SCC(F)(F)F [Compound 33]		> 90			
COC(=O)c1ccccc1CNc1cc(SCC(F)(F)F)c(C)cc1F [Compound 53]		> 90	> 90	> 90	99
COC(=O)c1ccccc1CNc1cc([S+]([O-])CC(F)(F)F)c(C)cc1F (centres unmarked) [Compound 54]		> 90	> 90	> 90	100
Cc1cc(F)c(NCc2cccc(F)c2)cc1SCC(F)(F)F [Compound 229, 2-fluoro-N-(3-fluorobenzyl)-4-methyl-5-((2,2,2-trifluoroethyl)thio) aniline]		> 90			
Cc1cc(F)c(NCc2ccc(Cl)c(Cl)c2)cc1SCC(F)(F)F [Compound 247]		> 90			
Cc1cc(F)c(NCc2ccc(Cl)c(F)c2)cc1SCC(F)(F)F [Compound 249, N-(4-chloro-3-fluorobenzyl)-2-fluoro-4-methyl-5-((2,2,2-trifluoroethyl)thio) aniline]		> 90			
COC(=O)c1cc(F)ccc1CNc1cc(SCC(F)(F)F)c(C)cc1F [Compound 303, 5-Fluoro-2-((((2-Fluoro-4-methyl-5-(2,2,2-trifluoroethyl)thio)phenyl)amino)methyl) benzoate]		> 90	> 90	> 90	99
COC(=O)c1cc(F)ccc1CNc1cc([S+]([O-])CC(F)(F)F)c(C)cc1F (centres unmarked) [Compound 304]		> 90	> 90	> 90	98
COC(=O)c1cc(F)ccc1CNc1cc(SCC(F)(F)F)c(Cl)cc1F [Compound 1165]		> 90	> 90	> 90	99
COC(=O)c1cc(F)ccc1CNc1cc([S+]([O-])CC(F)(F)F)c(Cl)cc1F (centres unmarked) [Compound 1166]		> 90	> 90	> 90	98
COC(=O)c1ccccc1CNc1cc(SCC(F)(F)F)c(Cl)cc1F [Compound 1202, 2-((((4-chloro-2-fluoro-5-((2,2,2-trifluoroethyl)thio)phenyl)amino)methyl) benzoate]		> 90	> 90	> 90	97
COC(=O)c1ccccc1CNc1cc([S+]([O-])CC(F)(F)F)c(Cl)cc1F (centres unmarked) [Compound 1203]		> 90	> 90	> 90	98
COCCOC(=O)C(C#N)(C(=O)c1ccccc1C(F)(F)F)c1ccc(C(C)(C)C)cc1 (centres unmarked) [Cyflumetofen, cyflumetofen, reference compound]	72				
